From paper PMC6199744, “Development of Chemical Proteomics for the Folateome and Analysis of the Kinetoplastid Folateome” (ACS Infectious Diseases, 2018)
Where two headings read alike, the source gives them in different places.

Legend:
Assay type in all cases: binding
[1] = molecular target: T1, HeLa cell extract proteins (Homo sapiens, UniProt P68371); details: captured protein TUBB2C; HeLa
T1 construct: endogenous in cells; host or cells: HeLa cell extract

[2] = molecular target: T2, HeLa cell extract proteins (Homo sapiens, UniProt Q8WTW3); details: protein COG1; HeLa
T2 construct: endogenous in cells; host or cells: HeLa cell extract
T2 sequence (Q8WTW3 1-980): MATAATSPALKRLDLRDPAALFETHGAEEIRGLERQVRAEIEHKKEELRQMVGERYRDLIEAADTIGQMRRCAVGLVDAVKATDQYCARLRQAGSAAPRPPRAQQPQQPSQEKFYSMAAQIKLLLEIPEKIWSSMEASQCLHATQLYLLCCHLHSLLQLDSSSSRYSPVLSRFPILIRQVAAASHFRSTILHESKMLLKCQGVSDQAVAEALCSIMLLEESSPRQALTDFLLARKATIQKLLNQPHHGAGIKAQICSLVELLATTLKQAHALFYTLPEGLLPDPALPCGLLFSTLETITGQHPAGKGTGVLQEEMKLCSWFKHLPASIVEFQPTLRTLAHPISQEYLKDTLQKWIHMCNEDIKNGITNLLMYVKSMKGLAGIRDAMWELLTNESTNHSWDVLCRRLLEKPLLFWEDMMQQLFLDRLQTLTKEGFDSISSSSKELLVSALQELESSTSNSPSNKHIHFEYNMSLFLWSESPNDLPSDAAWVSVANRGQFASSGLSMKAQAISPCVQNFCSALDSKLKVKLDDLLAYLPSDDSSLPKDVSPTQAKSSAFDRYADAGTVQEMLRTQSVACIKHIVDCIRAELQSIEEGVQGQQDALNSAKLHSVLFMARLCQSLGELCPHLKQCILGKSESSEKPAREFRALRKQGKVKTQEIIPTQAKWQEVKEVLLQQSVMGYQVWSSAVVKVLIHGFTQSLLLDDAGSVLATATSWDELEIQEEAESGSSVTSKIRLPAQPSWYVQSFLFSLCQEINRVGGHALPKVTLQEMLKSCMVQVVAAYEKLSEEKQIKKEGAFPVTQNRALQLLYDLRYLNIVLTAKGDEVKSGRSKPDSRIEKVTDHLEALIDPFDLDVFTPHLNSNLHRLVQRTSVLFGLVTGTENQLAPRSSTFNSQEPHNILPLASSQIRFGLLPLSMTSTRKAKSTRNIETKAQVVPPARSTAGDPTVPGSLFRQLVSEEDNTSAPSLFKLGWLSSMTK

[3] = molecular target: T3, HeLa cell extract proteins (Homo sapiens, UniProt P36957); details: protein DLST; HeLa
T3 construct: endogenous in cells; host or cells: HeLa cell extract
T3 sequence (P36957 68-453): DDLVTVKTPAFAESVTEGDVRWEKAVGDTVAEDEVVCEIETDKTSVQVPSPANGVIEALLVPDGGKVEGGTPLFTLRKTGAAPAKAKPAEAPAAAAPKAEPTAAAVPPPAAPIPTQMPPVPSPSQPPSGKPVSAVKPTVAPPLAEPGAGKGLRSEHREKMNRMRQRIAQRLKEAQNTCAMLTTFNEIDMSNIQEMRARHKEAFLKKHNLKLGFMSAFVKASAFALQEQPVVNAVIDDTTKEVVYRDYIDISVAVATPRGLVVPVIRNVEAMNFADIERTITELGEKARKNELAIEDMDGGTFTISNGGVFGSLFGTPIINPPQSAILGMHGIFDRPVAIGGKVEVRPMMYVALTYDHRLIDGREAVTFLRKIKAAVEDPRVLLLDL

[4] = molecular target: T4, HeLa cell extract proteins (Homo sapiens, UniProt Q92499)
T4 construct: endogenous in cells; host or cells: HeLa cell extract
T4 sequence (Q92499 1-740): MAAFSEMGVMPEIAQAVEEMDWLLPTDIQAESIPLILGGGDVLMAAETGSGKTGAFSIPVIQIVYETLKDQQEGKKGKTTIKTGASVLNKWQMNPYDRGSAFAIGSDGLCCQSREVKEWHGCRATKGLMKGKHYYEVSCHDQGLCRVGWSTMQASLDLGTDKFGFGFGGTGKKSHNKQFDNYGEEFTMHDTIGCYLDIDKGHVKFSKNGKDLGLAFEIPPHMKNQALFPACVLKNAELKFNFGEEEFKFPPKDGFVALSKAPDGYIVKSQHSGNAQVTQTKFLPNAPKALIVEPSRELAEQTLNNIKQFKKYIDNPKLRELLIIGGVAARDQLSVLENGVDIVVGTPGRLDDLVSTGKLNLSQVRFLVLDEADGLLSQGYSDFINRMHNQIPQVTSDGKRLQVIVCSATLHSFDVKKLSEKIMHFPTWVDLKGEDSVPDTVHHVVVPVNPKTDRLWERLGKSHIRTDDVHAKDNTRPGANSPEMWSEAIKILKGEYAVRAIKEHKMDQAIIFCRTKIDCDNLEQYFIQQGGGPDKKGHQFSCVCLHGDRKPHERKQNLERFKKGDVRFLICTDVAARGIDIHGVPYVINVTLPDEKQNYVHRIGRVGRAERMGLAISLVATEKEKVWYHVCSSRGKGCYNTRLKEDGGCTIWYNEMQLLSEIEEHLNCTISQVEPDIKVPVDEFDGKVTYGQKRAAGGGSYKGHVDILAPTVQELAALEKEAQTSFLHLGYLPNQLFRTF

[5] = molecular target: T5, HeLa cell extract proteins (Homo sapiens, UniProt Q6R327)
T5 construct: endogenous in cells; host or cells: HeLa cell extract
T5 sequence (Q6R327 whole entry): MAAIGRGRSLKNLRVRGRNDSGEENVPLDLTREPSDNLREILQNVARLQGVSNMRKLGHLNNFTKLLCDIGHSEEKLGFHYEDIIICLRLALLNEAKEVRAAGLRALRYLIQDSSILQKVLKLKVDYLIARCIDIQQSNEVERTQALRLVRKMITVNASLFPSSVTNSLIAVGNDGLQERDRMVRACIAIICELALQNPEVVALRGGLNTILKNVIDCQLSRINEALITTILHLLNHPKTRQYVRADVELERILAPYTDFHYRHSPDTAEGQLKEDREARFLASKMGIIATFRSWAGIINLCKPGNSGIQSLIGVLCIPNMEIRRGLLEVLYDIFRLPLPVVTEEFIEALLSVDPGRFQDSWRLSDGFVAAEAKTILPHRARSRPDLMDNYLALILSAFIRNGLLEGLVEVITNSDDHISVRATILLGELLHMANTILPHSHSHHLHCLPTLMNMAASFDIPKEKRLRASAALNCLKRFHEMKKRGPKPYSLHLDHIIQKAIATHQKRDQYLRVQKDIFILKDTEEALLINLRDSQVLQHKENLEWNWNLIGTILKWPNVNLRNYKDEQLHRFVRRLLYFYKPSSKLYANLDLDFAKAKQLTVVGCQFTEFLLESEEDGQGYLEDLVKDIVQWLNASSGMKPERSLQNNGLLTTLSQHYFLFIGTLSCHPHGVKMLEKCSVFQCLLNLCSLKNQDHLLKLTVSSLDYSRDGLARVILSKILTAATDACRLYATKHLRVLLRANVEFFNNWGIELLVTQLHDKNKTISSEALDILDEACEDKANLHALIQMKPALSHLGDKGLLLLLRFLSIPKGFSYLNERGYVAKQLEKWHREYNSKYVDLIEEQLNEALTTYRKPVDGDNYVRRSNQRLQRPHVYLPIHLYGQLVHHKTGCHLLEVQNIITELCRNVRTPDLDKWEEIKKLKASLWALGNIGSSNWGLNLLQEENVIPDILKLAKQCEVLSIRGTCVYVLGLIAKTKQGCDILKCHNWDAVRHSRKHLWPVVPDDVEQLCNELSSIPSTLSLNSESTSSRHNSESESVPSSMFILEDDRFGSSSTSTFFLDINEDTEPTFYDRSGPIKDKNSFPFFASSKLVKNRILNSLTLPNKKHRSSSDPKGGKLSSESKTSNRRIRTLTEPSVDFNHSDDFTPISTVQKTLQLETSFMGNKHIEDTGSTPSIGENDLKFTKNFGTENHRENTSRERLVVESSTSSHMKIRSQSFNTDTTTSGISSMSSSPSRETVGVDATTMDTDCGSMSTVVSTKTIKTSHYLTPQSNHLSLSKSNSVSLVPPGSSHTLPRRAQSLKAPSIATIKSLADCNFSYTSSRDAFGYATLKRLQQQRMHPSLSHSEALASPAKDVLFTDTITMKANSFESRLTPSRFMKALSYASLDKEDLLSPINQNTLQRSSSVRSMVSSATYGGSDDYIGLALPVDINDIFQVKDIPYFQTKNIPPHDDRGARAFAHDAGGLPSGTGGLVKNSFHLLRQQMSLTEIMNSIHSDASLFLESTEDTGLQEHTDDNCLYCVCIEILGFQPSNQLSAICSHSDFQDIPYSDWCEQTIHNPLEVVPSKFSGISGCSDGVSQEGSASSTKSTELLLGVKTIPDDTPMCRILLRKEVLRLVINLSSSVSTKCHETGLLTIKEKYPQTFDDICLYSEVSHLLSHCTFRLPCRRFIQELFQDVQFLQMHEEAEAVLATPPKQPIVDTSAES

[6] = molecular target: T6, HeLa cell extract proteins (Homo sapiens, UniProt P62888)
T6 construct: endogenous in cells; host or cells: HeLa cell extract

[7] = molecular target: T7, HeLa cell extract proteins (Homo sapiens, UniProt Q9BPW8)
T7 construct: endogenous in cells; host or cells: HeLa cell extract
T7 sequence (Q9BPW8 36-284): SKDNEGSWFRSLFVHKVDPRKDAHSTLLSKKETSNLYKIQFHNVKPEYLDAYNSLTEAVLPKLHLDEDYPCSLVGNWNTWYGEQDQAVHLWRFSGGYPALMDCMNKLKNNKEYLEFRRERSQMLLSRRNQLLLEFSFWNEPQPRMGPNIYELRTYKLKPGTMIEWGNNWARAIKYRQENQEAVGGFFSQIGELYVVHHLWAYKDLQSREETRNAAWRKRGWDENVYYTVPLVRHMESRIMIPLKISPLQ

[8] = molecular target: T8, HeLa cell extract proteins (Homo sapiens, UniProt O95848)
T8 construct: endogenous in cells; host or cells: HeLa cell extract
T8 sequence (O95848 1-222): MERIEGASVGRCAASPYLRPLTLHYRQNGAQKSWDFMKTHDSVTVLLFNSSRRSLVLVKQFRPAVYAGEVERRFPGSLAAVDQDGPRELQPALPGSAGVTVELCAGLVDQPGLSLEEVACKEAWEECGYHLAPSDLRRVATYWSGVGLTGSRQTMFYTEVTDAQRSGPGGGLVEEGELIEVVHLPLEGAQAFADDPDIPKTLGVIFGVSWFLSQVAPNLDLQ

T1 sequence (P68371 whole entry): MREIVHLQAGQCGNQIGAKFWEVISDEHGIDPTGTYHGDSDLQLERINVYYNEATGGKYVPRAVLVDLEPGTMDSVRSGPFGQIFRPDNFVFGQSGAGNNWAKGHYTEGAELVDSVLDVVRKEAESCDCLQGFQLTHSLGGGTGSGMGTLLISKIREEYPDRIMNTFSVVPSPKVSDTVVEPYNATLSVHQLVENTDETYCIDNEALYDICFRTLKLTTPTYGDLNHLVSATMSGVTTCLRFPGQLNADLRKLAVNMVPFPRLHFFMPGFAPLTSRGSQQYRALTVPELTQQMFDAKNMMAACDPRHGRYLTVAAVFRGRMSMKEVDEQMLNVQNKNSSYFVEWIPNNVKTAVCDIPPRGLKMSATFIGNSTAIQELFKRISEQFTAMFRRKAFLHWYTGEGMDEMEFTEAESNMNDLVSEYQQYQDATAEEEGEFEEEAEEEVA

SMILES: CCCCCCOc1cccc(Cc2cnc(N)nc2N)c1 [compound 2]
- fold changes relative to vehicle control [1]: 0.94
- fold changes relative to vehicle control [2]: 1.21
- fold changes relative to vehicle control [3]: 1.34

SMILES: NCCOCCOCC(=O)Nc1nc2ncc(CNc3ccc(C(=O)NC(CCC(=O)O)C(=O)O)cc3)nc2c(=O)[nH]1 (centres unmarked) [compound 6]
- fold changes relative to vehicle control ([4]; HeLa, captured protein DDX1): 1.12
- fold changes relative to vehicle control ([5]; HeLa, protein RICTOR): 1.11
- fold changes relative to vehicle control ([6]; protein RPL30, HeLa): 1
- fold changes relative to vehicle control ([7]; HeLa, protein NIPSNAP1): 1.04
- fold changes relative to vehicle control ([8]; protein NUDT14, HeLa): 0.8

SMILES: CCCCCCOc1ccc(Cc2cnc(N)nc2N)cc1 [compound 1]
- fold changes relative to vehicle control [1]: 1.03
- fold changes relative to vehicle control [2]: 1
- fold changes relative to vehicle control [3]: 1.31

SMILES: Nc1nc2c(c(=O)[nH]1)N(C=O)C(CNc1ccc(C(=O)N[C@@H](CCC(=O)O)C(=O)O)cc1)CN2 (some centres unmarked) [LEU, leucovorin]
- fold changes relative to vehicle control ([4]; HeLa, captured protein DDX1): 1.15
- fold changes relative to vehicle control ([5]; HeLa, protein RICTOR): 0.92
- fold changes relative to vehicle control ([6]; protein RPL30, HeLa): 0.86
- fold changes relative to vehicle control ([7]; HeLa, protein NIPSNAP1): 1.02
- fold changes relative to vehicle control ([8]; protein NUDT14, HeLa): 1.01

SMILES: NCCCNc1ccc(C(=O)NC(CCC(=O)O)C(=O)O)cc1 (centres unmarked) [compound 7]
- fold changes relative to vehicle control ([4]; HeLa, captured protein DDX1): 1.11
- fold changes relative to vehicle control ([5]; HeLa, protein RICTOR): 1.11
- fold changes relative to vehicle control ([6]; protein RPL30, HeLa): 0.92
- fold changes relative to vehicle control ([7]; HeLa, protein NIPSNAP1): 1.03
- fold changes relative to vehicle control ([8]; protein NUDT14, HeLa): 0.97

SMILES: Nc1nc2[nH]cc(CCc3ccc(C(=O)N[C@@H](CCC(=O)O)C(=O)O)cc3)c2c(=O)[nH]1 [PTX, pemetrexed]
- fold changes relative to vehicle control [4]: 1.14
- fold changes relative to vehicle control [5]: 0.97
- fold changes relative to vehicle control [6]: 0.89
- fold changes relative to vehicle control [7]: 1.03
- fold changes relative to vehicle control [8]: 0.49

SMILES: Nc1nc2cccc(-c3ccccc3)c2n1Cc1ccc(Cl)c(Cl)c1 [compound 3]
- fold changes relative to vehicle control [1]: 1.02
- fold changes relative to vehicle control [2]: 0.98
- fold changes relative to vehicle control [3]: 1.17
